According to patent US20180110754A1, “CENICRIVIROC FOR THE TREATMENT OF FIBROSIS” (Tobira Therapeutics, Inc., priority 2015, published 2018):

Tests used:
HIV-1 = experiment: Study 202 Phase 2b: virologic response (HIV-1 RNA <50 copies/mL, FDA Snapshot); format: in vivo, human; settings: EFV + FTC/TDF
From the text: Subjects with a history of HIV-2, hepatitis B and/or C, cirrhosis of the liver or any known active or chronic active liver disease were excluded from the study.
The primary efficacy endpoint was virologic response at Week 24, defined as HIV-1 RNA<50 copies/mL using the FDA Snapshot Algorithm.

[1] = Study 202: fasting metabolic laboratory parameters; format: in vivo; settings: for Fasting HDL, mean change from baseline / Fasting LDL, mean change from baseline / Fasting total cholesterol, mean change from baseline / Fasting total cholesterol/HDL ratio, mean change from baseline / Fasting triglycerides, mean change from baseline / HOMA-IR, mean change from baseline / HbA1c, mean change from baseline: EFV
From the text: All abnormalities in total cholesterol, LDL cholesterol, triglycerides, or glucose were Grade 1 or Grade 2.
Mean baseline values and changes from baseline in HbA1c, HOMA-IR, fasting LDL, fasting HDL, fasting total cholesterol, fasting total cholesterol/HDL ratio, and fasting triglycerides are shown in Table 36.

[2] = All CVC (N = 115), EFV (N = 28), through Week 48

O=C1Nc2ccc(Cl)cc2[C@@](C#CC2CC2)(C(F)(F)F)O1 [EFV, efavirenz, reference compound]
Virologic success (HIV-1 RNA <50 copies/mL) (HIV-1; Week 24): 71%
Virologic success (HIV-1 RNA <50 copies/mL) (HIV-1; Week 48): 50%
Any graded (Grade 1-4) fasting laboratory abnormality, n subjects [1, 2]: 9
Fasting LDL cholesterol abnormality, any grade, n subjects [1, 2]: 6
Fasting LDL cholesterol, worst Grade 1, n subjects [1, 2]: 3
Fasting LDL cholesterol, worst Grade 2, n subjects [1, 2]: 3
Fasting LDL cholesterol, worst Grade 3, n subjects [1, 2]: 0
Fasting LDL cholesterol, worst Grade 4, n subjects [1, 2]: 0
Fasting glucose (serum, high) abnormality, any grade, n subjects [1, 2]: 2
Fasting glucose (serum, high), worst Grade 1, n subjects [1, 2]: 2
Fasting glucose (serum, high), worst Grade 2, n subjects [1, 2]: 0
Fasting glucose (serum, high), worst Grade 3, n subjects [1, 2]: 0
Fasting glucose (serum, high), worst Grade 4, n subjects [1, 2]: 0
Fasting laboratory abnormality, worst Grade 1, n subjects [1, 2]: 6
Fasting laboratory abnormality, worst Grade 2, n subjects [1, 2]: 3
Fasting laboratory abnormality, worst Grade 3, n subjects [1, 2]: 0
Fasting laboratory abnormality, worst Grade 4, n subjects [1, 2]: 0
Fasting total cholesterol abnormality, any grade, n subjects [1, 2]: 9
Fasting total cholesterol, worst Grade 1, n subjects [1, 2]: 6
Fasting total cholesterol, worst Grade 2, n subjects [1, 2]: 3
Fasting total cholesterol, worst Grade 3, n subjects [1, 2]: 0
Fasting total cholesterol, worst Grade 4, n subjects [1, 2]: 0
Fasting triglycerides abnormality, any grade, n subjects [1, 2]: 0
Fasting triglycerides, worst Grade 1, n subjects [1, 2]: 0
Fasting triglycerides, worst Grade 2, n subjects [1, 2]: 0
Fasting triglycerides, worst Grade 3, n subjects [1, 2]: 0
Fasting triglycerides, worst Grade 4, n subjects [1, 2]: 0
Fasting HDL, mean change from baseline ([1]; Week 4, All CVC): 5.90 mg/dL
Fasting LDL, mean change from baseline ([1]; Week 4, All CVC): 8.62 mg/dL
Fasting total cholesterol, mean change from baseline ([1]; Week 4, All CVC): 19 mg/dL
Fasting total cholesterol/HDL ratio, mean change from baseline ([1]; Week 4, All CVC): −0.07
Fasting triglycerides, mean change from baseline ([1]; Week 4, All CVC): 23 mg/dL
HOMA-IR, mean change from baseline ([1]; Week 4, All CVC): 0.30
HbA1c, mean change from baseline ([1]; Week 4, All CVC): −0.01 % Hb
Fasting HDL, mean change from baseline ([1]; Week 12, All CVC): 9.45 mg/dL
Fasting LDL, mean change from baseline ([1]; Week 12, All CVC): 7.59 mg/dL
Fasting total cholesterol, mean change from baseline ([1]; Week 12, All CVC): 18 mg/dL
Fasting total cholesterol/HDL ratio, mean change from baseline ([1]; Week 12, All CVC): −0.41
Fasting triglycerides, mean change from baseline ([1]; Week 12, All CVC): 3 mg/dL
HOMA-IR, mean change from baseline ([1]; Week 12, All CVC): 0.06
HbA1c, mean change from baseline ([1]; Week 12, All CVC): −0.07 % Hb
Fasting HDL, mean change from baseline ([1]; Week 24, All CVC): 12.75 mg/dL
Fasting LDL, mean change from baseline ([1]; Week 24, All CVC): 13.40 mg/dL
Fasting total cholesterol, mean change from baseline ([1]; Week 24, All CVC): 24 mg/dL
Fasting total cholesterol/HDL ratio, mean change from baseline ([1]; Week 24, All CVC): −0.47
Fasting triglycerides, mean change from baseline ([1]; Week 24, All CVC): -10 mg/dL
HOMA-IR, mean change from baseline ([1]; Week 24, All CVC): −1.27
HbA1c, mean change from baseline ([1]; Week 24, All CVC): −0.01 % Hb
Fasting HDL, mean change from baseline ([1]; Week 48, All CVC): 11.94 mg/dL
Fasting LDL, mean change from baseline ([1]; Week 48, All CVC): 11.19 mg/dL
Fasting total cholesterol, mean change from baseline ([1]; Week 48, All CVC): 26 mg/dL
Fasting total cholesterol/HDL ratio, mean change from baseline ([1]; Week 48, All CVC): −0.35
Fasting triglycerides, mean change from baseline ([1]; Week 48, All CVC): 14 mg/dL
HOMA-IR, mean change from baseline ([1]; Week 48, All CVC): −0.12
HbA1c, mean change from baseline ([1]; Week 48, All CVC): −0.08 % Hb
Change in fasting cholesterol (total, LDL, HDL) during treatment ([1]; through Week 48): increases were observed
